Legend:
[1] = Dye release from MNAs inserted into 4% agar test-gels; type: physicochemical; details: dually loaded MNA
From the text: To illustrate the delivery of multiple drugs with distinct release kinetics, MNAs were fabricated to delivery two distinct cargos by distinct release kinetics. Specifically, MNAs were fabricated to release the marker Toluidine Blue in an initial burst, followed by a sustained release of the marker FD&C Red40. Dyes were directly loaded in the MNA scaffold matrix (in this case CMC) of the needle tips and in some cases a second dye, encapsulated in a sustained release polymer was layer directly below. MNAs were inserted into 4% agar test-gels and removed after 1 min.
Images of dye diffusion were collected at the indicated time points (FIG. 39A). […] Alternatively, MNAs were fabricated with toluidine blue tip-loaded and FD&C Red40 encapsulated in a sustained release polymer (FIG. 39C). MNAs were inserted into 4% agar test-gel and removed after 1 min. Images were collected at the indicated time-points. […] Upper panels depict images of microneedles from MNAs before application. The middle images are the imprints of the arrays 1 minute after application and MNA removal. Lower panels depicted the indicated representative magnified images at the indicated time points.

B16 skin tumors = assay: B16 melanoma model: established skin tumors treated with MNAs; details: MNA once weekly for three weeks; for tumor growth: compared to untreated tumor bearing animals; for survival: untreated animals 100% mortality
Protocol: The B16 melanoma model was used as a model tumor to test these novel approaches.
Visible established cutaneous tumors were treated once weekly for three weeks with MNAs containing either doxorubicin alone, Poly(I:C) alone, or doxorubicin and Poly(I:C) incorporated into the same MNA. The doxorubicin dose chosen corresponds to an MNA dose that induces apoptosis in human skin without causing necrosis. Tumor growth and survival were measured regularly for the duration of the study.

[2] = tested on: epidermal cells of living human skin explants; details: 5 mg/g of CMC; arrays removed after 5 minutes; 72 hours of exposure
Protocol: Cytoxan® was integrated at a concentration of 5 mg/g of CMC, enabling delivery of approximately about 140 μg per array. This is a therapeutically relevant concentration based on the area of skin targeted, yet well below levels associated with systemic toxicities. Living human skin organ cultures were used to assess the cytotoxicty of Cytoxan®. Cytoxan® was delivered by application of arrays to skin explants as we previously described. Arrays and residual material were removed 5 minutes after application, and after 72 hours of exposure, culture living skin explants were cryo-sectioned and fixed. Apoptosis was evaluated using green fluorescent TUNEL assay (In Situ Cell Death Detection Kit, TMR […], Roche, cat #:11-684-795-910).

Row | Molecule | tumor growth (B16 skin tumors) | survival (B16 skin tumors) [%] | other results
1 | COc1cc(S(=O)(=O)[O-])c(C)cc1N=Nc1c(O)ccc2cc(S(=O)(=O)[O-])ccc12.[Na+].[Na+] [FD&C Red40] | – | – | release of encapsulated dye ([1]; dye encapsulated in a sustained release polymer): released slowly over an extended time period; period of release from depot ([1]; dye in underlying layer of sustained release polymer): 10 days
2 | COc1cccc2c1C(=O)c1c(O)c3c(c(O)c1C2=O)C[C@@](O)(C(=O)CO)C[C@@H]3O[C@H]1C[C@H](N)[C@H](O)[C@H](C)O1 [doxorubicin] | slowed tumor growth | 30 | –
3 | Poly(I:C) | slowed tumor growth | 50 | –
4 | O=P1(N(CCCl)CCCl)NCCCO1 (centres unmarked) [Cytoxan®, cyclophosphamide] | – | – | apoptosis of epidermal cells (TUNEL) [2]: extensive apoptosis of epidermal cells
5 | Cc1cc2nc3ccc(N(C)C)cc3[s+]c2cc1N.[Cl-] [Toluidine Blue] | – | – | release of tip-loaded dye ([1]; dye in CMC in the needle tip): released in an initial burst

Source: patent US11684763B2, “Multi-component bio-active drug delivery and controlled release to the skin by microneedle array devices” (University of Pittsburgh—Of the Commonwealth System of …, priority 2015, dated 2023)
